Source: patent US9516824B2, “Method for modulating the number of archesporial cells in a developing anther” (The Board of Trustees of the Leland Stanford Junior …, priority 2012, dated 2016)
“Also recorded” adds a separate entry of the source.

Columns and labels:
maize anthers [1] = assay: Oxygen tension / ROS manipulation of the tassel airspace (gas by hose or needle, chemical injection): locule cell counts and SPL/EN bilayer progression by confocal imaging; details: for AR specification / AR cell counts compared to puncture controls: injected into tassel airspace: 1 mM H2O2, 10 mM KI, 200 μM PTIO, 48 h prior to dissection; for AR specification / AR cell counts compared to puncture controls / somatic bilayer formation / development / AR morphological differentiation: 100 μM L-NNA, 20 μM SNP; for somatic bilayer formation / development: injected: 1 mM H2O2, 200 μM PTIO, compared to puncture control and untreated; for peripheral counts compared to needle puncture control / total L2 counts compared to needle puncture control: injection of 1 mL of 1 mM H2O2 or 10 mM KI; for AR morphological differentiation: injected: 200 μM PTIO; for SPL/EN bilayer (somatic niche) formation: gas treatment by hose or needle, 24 or 48 h; for peripheral somatic cell counts: late stages after 48 hour gas exposure
Experimental: Fertile W23 inbred anthers were stained with propidium iodide and imaged in Z-stack using a Leica SP5 confocal microscope (6). The ontogeny of locular cell types was cataloged over ˜2.5 days as anthers grew in length from 100 to 300 μm. […] The morphological characteristics of pre-meiotic cells are well established (18).
N2 or O2 gas was administered through hoses threaded into the leaf whorl (FIG. 15B). […] Alternatively, nitrogen, oxygen, or compressed air (20% O2) were administered by connecting gas lines to a needle inserted into the tassel airspace (FIGS. 15, C and D). In all experiments, a low flow of gas was administered over a 24 (A619) or 48 hour period (W23). Total locule cells (FIGS. 2, B, H, and M), peripheral somatic cells (FIGS. 2, C, I, and N), and central AR cells (FIGS. 2, D, J, and O) were quantified.
Confocal imaging, and EdU and PI staining were performed as described previously (6). Oxygen probe was an Oxygraph Tx3 (NTH-Pst1-L5-NS40-0.8-YOP) obtained from Presens (Regensburg, Germany). All chemicals were obtained from Sigma Chemical Co. (St. Louis, Mo.) and dissolved in water at the indicated molarities and injected using a 26 gauge needle into the airspace surrounding the immature tassel.

maize anthers [2] = assay: Ectopic archesporial (AR) cell formation after reducing or oxidizing treatments; type: in vivo; details: for ectopic AR location by CT: internal (near or in the CT and VT); for # having ectopic AR: number of anthers; for ectopic AR location by EPI: superficial (near or on the EPI)
[3] = fertile genotype, listed as N2 (direct)
[4] = fertile genotype, listed as N2 (hose)
[5] = fertile, needle trial, 48 h gas treatment
[6] = fertile genotype, listed as O2 (direct)
[7] = fertile genotype, listed as O2 (hose)

SMILES | ectopic AR location by CT (maize anthers [2]; fertile genotype) | # having ectopic AR (maize anthers [2]; fertile genotype) | ectopic AR location by EPI (maize anthers [2]; fertile genotype) | ectopic AR location by CT (maize anthers [2]; mac1 genotype) | # having ectopic AR (maize anthers [2]; mac1 genotype) | ectopic AR location by EPI (maize anthers [2]; mac1 genotype) | AR specification in msca1 anthers (maize anthers [2]) | ectopic AR location by CT (maize anthers [2]; msca1 genotype) | # having ectopic AR (maize anthers [2]; msca1 genotype) | ectopic AR location by EPI (maize anthers [2]; msca1 genotype) | AR count (treatment effect) (maize anthers [1]; fertile genotype) | SPL/EN timing (treatment effect) (maize anthers [1]; fertile genotype) | AR specification / AR cell counts compared to puncture controls (maize anthers [1]) | somatic bilayer formation / development (maize anthers [1]) | AR count (treatment effect) (maize anthers [1]; mac1 genotype) | AR per event (average count of ectopic AR cells in each instance) (maize anthers [2]; fertile genotype) | AR count (treatment effect) (maize anthers [1]; msca1 genotype) | niche - forming (periclinal divisions generating EN/SPL-like bilayer around ectopic AR) (maize anthers [2]; fertile genotype) | other results
c1ccc2c(c1)[I+]c1ccccc1-2 [DPI, Diphenylene iodonium] |  |  |  |  |  |  |  |  |  |  |  |  |  |  |  |  |  |  | effect on tassel tissues (maize anthers [1]; injected into tassel airspace): complete degeneration of the tassel tissues
OO [H2O2, hydrogen peroxide] | 0 | 0 | 0 | 0 | 0 | 0 | lacked AR | 0 | 0 | 0 | fewer | delayed | lowered AR cell counts | inhibited subsequent somatic bilayer formation | extra |  |  |  | AR per event (average count of ectopic AR cells in each instance) (maize anthers [2]; msca1 genotype): 2; niche - forming (periclinal divisions generating EN/SPL-like bilayer around ectopic AR) (maize anthers [2]; msca1 genotype): yes; peripheral counts compared to needle puncture control (maize anthers [1]): greatly reduced; total L2 counts compared to needle puncture control (maize anthers [1]): greatly reduced
[I-].[K+] [KI] | 0 | 2 | 2 |  | 0 | 0 | caused AR specification |  | 6 | 5 | extra | early | dramatically promoted AR specification |  | extra | 7 | extra |  | AR per event (average count of ectopic AR cells in each instance) (maize anthers [2]; msca1 genotype): 3; percent of treated anthers having AR cells (maize anthers [2]; msca1 mutant, 20 μM SNP or KI injected): 9.5%; AR:total L2 ratios (maize anthers [1]; 10 mM KI injected): increased AR:total L2 ratios; peripheral counts compared to needle puncture control (maize anthers [1]): did not alter; total L2 counts compared to needle puncture control (maize anthers [1]): did not alter
N=C(NCCC[C@H](N)C(=O)O)N[N+](=O)[O-] [L-NNA, N^G-nitro-L-Arginine] | 1 | 1 | 0 | 0 | 0 | 0 | lacked AR | 0 | 0 | 0 | fewer | delayed | slightly repressed; also recorded: slightly suppressed AR counts | dramatically delayed | extra | 2 |  | yes | AR morphological differentiation (maize anthers [1]): slowed the morphological differentiation of central AR cells; also recorded: delayed AR morphological differentiation
N#N [N2, nitrogen] | 0 |  |  | 2 | 7 | 5 |  | 0 | 0 | 0 | extra | early |  |  | extra | 5 | none |  | # having ectopic AR (maize anthers [2]; [3]): 4; # having ectopic AR (maize anthers [2]; [4]): 0; ectopic AR location by EPI (maize anthers [2]; [3]): 4; ectopic AR location by EPI (maize anthers [2]; [4]): 0; ectopic AR formation (maize anthers [2]; hose protocol): did not cause ectopic AR in any anthers; AR per event (average count of ectopic AR cells in each instance) (maize anthers [2]; mac1 genotype): 3; AR specification and AR cell counts compared to untreated fertile anthers (maize anthers [1]; fertile, all three gas protocols (hose 48 h W23, hose 24 h A619, needle)): early specification and excess AR cells; AR:total L2 ratio (maize anthers [1]; fertile, gas treatment): elevated ratios; SPL/EN bilayer (somatic niche) formation (maize anthers [1]; fertile): formed early; also recorded: precocious bilayer formation; central AR as fraction of total L2 cells (maize anthers [1]; fertile, gas treatment, early stages): up to 25%; peripheral somatic cell counts (maize anthers [1]; fertile): increased peripheral somatic cell counts; AR counts (maize anthers [1]; [5]): Excess presumptive AR cells
O=O [O2, oxygen] |  |  |  | 0 | 0 | 0 |  | 0 | 0 | 0 |  |  |  |  | extra | 3.7 | none | ~half | ectopic AR location by CT (maize anthers [2]; [6]): 12; ectopic AR location by CT (maize anthers [2]; [7]): 0; # having ectopic AR (maize anthers [2]; [6]): 18; # having ectopic AR (maize anthers [2]; [7]): 0; ectopic AR location by EPI (maize anthers [2]; [6]): 6; ectopic AR location by EPI (maize anthers [2]; [7]): 0; AR count (treatment effect) (maize anthers [1]; [6]): extra; SPL/EN timing (treatment effect) (maize anthers [1]; [6]): delayed; AR count (treatment effect) (maize anthers [1]; [7]): fewer; SPL/EN timing (treatment effect) (maize anthers [1]; [7]): late; SPL/EN bilayer (somatic niche) formation (maize anthers [1]; fertile): delayed; AR specification (maize anthers [1]; fertile, hose gas treatment): repressed AR specification; AR counts (maize anthers [1]; fertile, hose, 24 hour exposure): significantly fewer AR than either untreated or N2; central AR counts (maize anthers [1]; fertile, hose, 48 hour treatment): far lower than N2; peripheral somatic cell counts (maize anthers [1]; fertile): increased peripheral somatic cells in the late stages; AR counts (maize anthers [1]; [5]): elevated in the needle trial, less than compressed air and dramatically less than nitrogen
CC1(C)N([O])C(c2ccccc2)=[N+]([O-])C1(C)C [PTIO, 2-Phenyl-4,4,5,5-tetramethylimidazoline-1-oxyl-3-oxide] | 3 | 4 | 1 | 0 | 0 | 0 | lacked AR | 0 | 0 | 0 | fewer | delayed | slightly repressed; also recorded: slightly suppressed AR counts | dramatically delayed | extra | 5 |  | yes | AR morphological differentiation (maize anthers [1]): slowed the morphological differentiation of central AR cells; also recorded: delayed AR morphological differentiation
